Literature values as cited in patent US20170128514A1, “PHARMACEUTICAL COMPOSITION FOR TREATING CARDIO-CEREBROVASCULAR DISEASES AND METHOD FOR PREPARING THE SAME” (priority 2014, published 2017).

Columns and labels:
[1] = system: thrombocytopenia caused by heparin
[2] = system: acute coronary syndrome (ACS); settings: human, in vivo

hirudin
patients with blood platelets recovered and normal ([1]; 14.4 hrs. after the treatment): 88.7% | bleeding ([1]; in vivo): bleeding only occurs in a dose much larger than the required dose for anti-coagulation | efficacy in treating acute coronary syndrome (ACS) compared with heparin [2]: more significant than the heparin
